From US20140323300A1, “HERBICIDAL COMPOUNDS” (SYNGENTA LIMITED, priority 2011, published 2014)

Columns and labels:
Type in all cases: in vivo
[1] = tested on: Alopecurus myosuroides (ALOMY); test: Post-emergence glasshouse herbicide test; details: post-emergence (sprayed after 8 days cultivation), 1000 g/h, evaluated after 13 days, five point scale
In short: (§1)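 Damage was rated 13 days after treatment on a five-point scale (1 = 0–19%, 5 = 80–100%). The compound, formulated in 50:50 acetone/water with 0.5% Tween 20, was sprayed at 1000 g/h on pots one day (pre) or 8 days (post) after sowing, kept in a glasshouse at 24/16° C, 14 h light, 65% humidity.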

[2] = tested on: Amaranthus retoflexus (AMARE); test: Post-emergence glasshouse herbicide test; details: post-emergence (sprayed after 8 days cultivation), 1000 g/h, evaluated after 13 days, five point scale
In short: as §1

[3] = tested on: Echinochloa crus-galli (ECHCG); test: Post-emergence glasshouse herbicide test; details: post-emergence (sprayed after 8 days cultivation), 1000 g/h, evaluated after 13 days, five point scale
In short: as §1

[4] = tested on: Ipomoea hederacea (IPOHE); test: Post-emergence glasshouse herbicide test; details: post-emergence (sprayed after 8 days cultivation), 1000 g/h, evaluated after 13 days, five point scale
In short: as §1

Setaria faberi (SETFA) [5] = test: Post-emergence glasshouse herbicide test; details: post-emergence (sprayed after 8 days cultivation), 1000 g/h, evaluated after 13 days, five point scale
In short: as §1

Solanum nigrum (SOLNI) [6] = test: Post-emergence glasshouse herbicide test; details: post-emergence (sprayed after 8 days cultivation), 1000 g/h, evaluated after 13 days, five point scale
In short: as §1

[7] = tested on: Alopecurus myosuroides (ALOMY); test: Pre-emergence glasshouse herbicide test; details: pre-emergence (sprayed after one day cultivation), 1000 g/h, evaluated after 13 days, five point scale
In short: as §1

[8] = tested on: Amaranthus retoflexus (AMARE); test: Pre-emergence glasshouse herbicide test; details: pre-emergence (sprayed after one day cultivation), 1000 g/h, evaluated after 13 days, five point scale
In short: as §1

[9] = tested on: Echinochloa crus-galli (ECHCG); test: Pre-emergence glasshouse herbicide test; details: pre-emergence (sprayed after one day cultivation), 1000 g/h, evaluated after 13 days, five point scale
In short: as §1

[10] = tested on: Ipomoea hederacea (IPOHE); test: Pre-emergence glasshouse herbicide test; details: pre-emergence (sprayed after one day cultivation), 1000 g/h, evaluated after 13 days, five point scale
In short: as §1

Setaria faberi (SETFA) [11] = test: Pre-emergence glasshouse herbicide test; details: pre-emergence (sprayed after one day cultivation), 1000 g/h, evaluated after 13 days, five point scale
In short: as §1

Solanum nigrum (SOLNI) [12] = test: Pre-emergence glasshouse herbicide test; details: pre-emergence (sprayed after one day cultivation), 1000 g/h, evaluated after 13 days, five point scale
In short: as §1

Compound	percentage damage caused to the plant, POST Application ALOMY [1]	percentage damage caused to the plant, POST Application AMARE [2]	percentage damage caused to the plant, POST Application ECHCG [3]	percentage damage caused to the plant, POST Application IPOHE [4]	percentage damage caused to the plant, POST Application SETFA (Setaria faberi (SETFA) [5])	percentage damage caused to the plant, POST Application SOLNI (Solanum nigrum (SOLNI) [6])	percentage damage caused to the plant, PRE Application ALOMY [7]	percentage damage caused to the plant, PRE Application AMARE [8]	percentage damage caused to the plant, PRE Application ECHCG [9]	percentage damage caused to the plant, PRE Application IPOHE [10]	percentage damage caused to the plant, PRE Application SETFA (Setaria faberi (SETFA) [11])	percentage damage caused to the plant, PRE Application SOLNI (Solanum nigrum (SOLNI) [12])
Cc1nc(C(F)(F)F)ccc1-n1nccc(O)c1=O.O=C(O)C(F)(F)F [Compound 1.027]	1 (1=0-19%)	4 (4=60-79%)	5 (5=80-100%)	5 (5=80-100%)	4 (4=60-79%)	5 (5=80-100%)	1 (1=0-19%)	4 (4=60-79%)	5 (5=80-100%)	5 (5=80-100%)	4 (4=60-79%)	5 (5=80-100%)
Cc1nc(C(F)(F)F)ccc1-n1ncc(S(C)(=O)=O)c(O)c1=O [Compound 1.029]	1 (1=0-19%)	3 (3=40-59%)	4 (4=60-79%)	2 (2=20-39%)	4 (4=60-79%)	4 (4=60-79%)	1 (1=0-19%)	3 (3=40-59%)	4 (4=60-79%)	2 (2=20-39%)	4 (4=60-79%)	4 (4=60-79%)
Cc1nc(C(F)(F)F)ccc1-n1ncc([S+](C)[O-])c(O)c1=O (stereo not drawn) [Compound 1.030]	2 (2=20-39%)	4 (4=60-79%)	5 (5=80-100%)	3 (3=40-59%)	5 (5=80-100%)	5 (5=80-100%)	2 (2=20-39%)	4 (4=60-79%)	5 (5=80-100%)	3 (3=40-59%)	5 (5=80-100%)	5 (5=80-100%)
CS(=O)(=O)c1cc(C(F)(F)F)ccc1-n1ncc(C2CC2)c(O)c1=O [Compound 1.031]	5 (5=80-100%)	5 (5=80-100%)	5 (5=80-100%)	5 (5=80-100%)	5 (5=80-100%)	5 (5=80-100%)	5 (5=80-100%)	5 (5=80-100%)	5 (5=80-100%)	5 (5=80-100%)	5 (5=80-100%)	5 (5=80-100%)
CS(=O)(=O)c1cc(C(F)(F)F)ccc1-n1ncc(Br)c(O)c1=O [Compound 1.032]	5 (5=80-100%)	5 (5=80-100%)	5 (5=80-100%)	5 (5=80-100%)	5 (5=80-100%)	5 (5=80-100%)	5 (5=80-100%)	5 (5=80-100%)	5 (5=80-100%)	5 (5=80-100%)	5 (5=80-100%)	5 (5=80-100%)
CSc1cnn(-c2ccc(C(F)(F)F)cc2S(C)(=O)=O)c(=O)c1O [Compound 1.034]	1 (1=0-19%)	5 (5=80-100%)	4 (4=60-79%)	4 (4=60-79%)	3 (3=40-59%)	5 (5=80-100%)	1 (1=0-19%)	5 (5=80-100%)	4 (4=60-79%)	4 (4=60-79%)	3 (3=40-59%)	5 (5=80-100%)
CCc1cnn(-c2ccc(C(F)(F)F)nc2S(C)(=O)=O)c(=O)c1O [Compound 1.036]	5 (5=80-100%)	5 (5=80-100%)	5 (5=80-100%)	5 (5=80-100%)	5 (5=80-100%)	5 (5=80-100%)	5 (5=80-100%)	5 (5=80-100%)	5 (5=80-100%)	5 (5=80-100%)	5 (5=80-100%)	5 (5=80-100%)
CCc1cnn(-c2ccc(Cl)cc2S(C)(=O)=O)c(=O)c1O [Compound 1.037]	5 (5=80-100%)	5 (5=80-100%)	5 (5=80-100%)	4 (4=60-79%)	5 (5=80-100%)	5 (5=80-100%)	5 (5=80-100%)	5 (5=80-100%)	5 (5=80-100%)	4 (4=60-79%)	5 (5=80-100%)	5 (5=80-100%)
CCc1ccc(-n2ncc(CC)c(O)c2=O)c(S(C)(=O)=O)c1 [Compound 1.038]	4 (4=60-79%)	5 (5=80-100%)	5 (5=80-100%)	5 (5=80-100%)	5 (5=80-100%)	5 (5=80-100%)	4 (4=60-79%)	5 (5=80-100%)	5 (5=80-100%)	5 (5=80-100%)	5 (5=80-100%)	5 (5=80-100%)
C[S+]([O-])c1cnn(-c2ccc(C(F)(F)F)cc2S(C)(=O)=O)c(=O)c1O (stereo not drawn) [Compound 1.041]	1 (1=0-19%)	5 (5=80-100%)	4 (4=60-79%)	4 (4=60-79%)	2 (2=20-39%)	5 (5=80-100%)	1 (1=0-19%)	5 (5=80-100%)	4 (4=60-79%)	4 (4=60-79%)	2 (2=20-39%)	5 (5=80-100%)
CS(=O)(=O)c1cc(C(F)(F)F)ccc1-n1ncc(S(C)(=O)=O)c(O)c1=O [Compound 1.042]	1 (1=0-19%)	2 (2=20-39%)	1 (1=0-19%)	1 (1=0-19%)	1 (1=0-19%)	2 (2=20-39%)	1 (1=0-19%)	2 (2=20-39%)	1 (1=0-19%)	1 (1=0-19%)	1 (1=0-19%)	2 (2=20-39%)
